Assay results reported in patent publication US12060347B2 (BRISTOL-MYERS SQUIBB COMPANY, priority 2016, dated 2024).

Biological target: T1, human PAR4 (Homo sapiens, UniProt Q96RI0)
T1 construct: expressed in transfected cells; host or cells: HEK293 PAR4 Clone 1.2A (BMS Arctic ID 383940)
T1 sequence (Q96RI0 18-385): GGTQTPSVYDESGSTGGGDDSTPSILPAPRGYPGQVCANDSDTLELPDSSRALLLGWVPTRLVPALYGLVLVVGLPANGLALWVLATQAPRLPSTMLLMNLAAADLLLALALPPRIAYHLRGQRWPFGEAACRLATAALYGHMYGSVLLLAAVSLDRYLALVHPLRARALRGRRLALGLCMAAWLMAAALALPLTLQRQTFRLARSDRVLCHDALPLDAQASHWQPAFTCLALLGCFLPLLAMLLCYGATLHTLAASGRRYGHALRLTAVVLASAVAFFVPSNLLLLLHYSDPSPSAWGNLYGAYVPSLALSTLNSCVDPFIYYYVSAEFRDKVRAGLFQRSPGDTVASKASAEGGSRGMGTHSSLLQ
Test: PAR4 FLIPR assay: antagonism of agonist-peptide-induced calcium mobilization in PAR4-expressing HEK293 cells
Type: cell-based
Details: H-Ala-Phe(4-F)-[…]NH2-induced intracellular calcium mobilization, 11-point curves

SMILES	IC50
COc1cnc2c(-c3nc4cc(F)c(OC)nc4s3)cc(C)cc2n1 [Example 182, 6-fluoro-5-methoxy-2-(2-methoxy-7-methylquinoxalin-5-yl)thiazolo[5,4-b]pyridine]	22 nM
COCc1cnc2c(-c3nc4c(C)cc(OC)cc4s3)cc(C)cc2n1 [Example 183, 6-methoxy-2-(2-(methoxymethyl)-7-methylquinoxalin-5-yl)-4-methylbenzo[d]thiazole]	0.6 nM
COC(C)c1cnc2c(-c3cc4ccccc4o3)cc(C)cc2n1 (stereo not drawn) [Example 184, 5-(benzofuran-2-yl)-2-(1-methoxyethyl)-7-methylquinoxaline]	2300 nM
COCc1cnc2c(-c3nc4c(C)cc(OC)cc4s3)cc(C)cc2c1 [Example 185, 6-methoxy-2-(3-(methoxymethyl)-6-methylquinolin-8-yl)-4-methylbenzo[d]thiazole]	6.5 nM
COc1cc(C)c2nc(-c3cc(C)cc4nc(C(F)(F)OC)cnc34)sc2c1 [Example 186, 2-(2-(difluoro(methoxy)methyl)-7-methylquinoxalin-5-yl)-6-methoxy-4-methylbenzo[d]thiazole]	17 nM
COc1cc(C)c2nc(-c3cc(C)cc4nc(COc5ccccc5)cnc34)sc2c1 [Example 187, 6-methoxy-4-methyl-2-(7-methyl-2-(phenoxymethyl)quinoxalin-5-yl)benzo[d]thiazole]	390 nM
COc1cc(C)c2nc(-c3cc(C)cc4nc(CN(C)C)cnc34)sc2c1 [Example 188, 1-(5-(6-methoxy-4-methylbenzo[d]thiazol-2-yl)-7-methylquinoxalin-2-yl)-N,N-dimethylmethanamine]	580 nM
CCOCc1cnc2c(-c3nc4c(C)cc(OC)cc4s3)cc(C)cc2n1 [Example 189, 2-(2-(ethoxymethyl)-7-methylquinoxalin-5-yl)-6-methoxy-4-methylbenzo[d]thiazole]	140 nM
COCc1cnc2c(-c3nc4c(C)cc(OC)cc4s3)cc(C)cc2c1OC [Example 190, 6-methoxy-2-(4-methoxy-3-(methoxymethyl)-6-methylquinolin-8-yl)-4-methylbenzo[d]thiazole]	1700 nM
COCc1cnc2c(-c3nc4c(C)cc(Cl)nc4s3)cc(C)cc2n1 [Example 191, 5-chloro-2-(2-(methoxymethyl)-7-methylquinoxalin-5-yl)-7-methylthiazolo[5,4-b] pyridine]	6.4 nM
COCc1cnc2c(-c3nc4c(CO)cc(OC)nc4s3)cc(C)cc2n1 [Example 192, (5-methoxy-2-(2-(methoxymethyl)-7-methylquinoxalin-5-yl)thiazolo[5,4-b]pyridin-7-yl) methanol]	2.8 nM
COCc1cnc2c(-c3nc4c(C)cc(OCCNS(=O)(=O)c5ccc(F)cc5)nc4s3)cc(C)cc2n1 [Example 193, 4-fluoro-N-(2-((2-(2-(methoxymethyl)-7-methylquinoxalin-5-yl)-7-methylthiazolo[5,4-b]pyridin-5-yl)oxy)ethyl)benzenesulfonamide]	1.2 nM
COc1cnc2c(-c3nc4c(C)cc(OCCNS(=O)(=O)c5ccc(F)cc5)nc4s3)cc(C)cc2n1 [Example 194, 4-fluoro-N-(2-((2-(2-methoxy-7-methylquinoxalin-5-yl)-7-methylthiazolo[5,4-b]pyridin-5-yl)oxy)ethyl)benzenesulfonamide]	2.5 nM
COCc1cnc2c(-c3cc4ccccc4o3)cc(C)cc2n1 [Example 195, 5-(benzofuran-2-yl)-2-(methoxymethyl)-7-methylquinoxaline]	32 nM
COc1cnc2c(-c3nc4c(C)cc(OCCOC(=O)Nc5cccnc5)nc4s3)cc(C)cc2n1 [Example 196, 2-((2-(2-methoxy-7-methylquinoxalin-5-yl)-7-methylthiazolo[5,4-b]pyridin-5-yl)oxy)ethyl pyridin-3-ylcarbamate]	2.3 nM
COc1cnc2c(-c3nc4c(C)cc(OCCOC(=O)Nc5ccc(C#N)nc5)nc4s3)cc(C)cc2n1 [Example 197, 2-((2-(2-methoxy-7-methylquinoxalin-5-yl)-7-methylthiazolo[5,4-b]pyridin-5-yl)oxy)ethyl (6-cyanopyridin-3-yl)carbamate]	1.3 nM
COc1cnc2c(-c3nc4cc(F)c(OCCOC(=O)Nc5ccc(C#N)nc5)nc4s3)cc(C)cc2n1 [Example 198, 2-((6-fluoro-2-(2-methoxy-7-methylquinoxalin-5-yl)thiazolo[5,4-b]pyridin-5-yl)oxy)ethyl (6-cyanopyridin-3-yl)carbamate]	0.6 nM
COc1cnc2c(-c3nc4c(C)cc(OCCNS(=O)(=O)c5ccc(F)cc5)cc4s3)cc(Cl)cc2n1 [Example 199, N-(2-((2-(7-chloro-2-methoxyquinoxalin-5-yl)-4-methylbenzo[d]thiazol-6-yl)oxy)ethyl)-4-fluorobenzenesulfonamide]	2.5 nM

SMILES	IC50
COCc1cnc2c(-c3nc4c(C)cc(OCCNS(=O)(=O)c5ccc(F)cc5)cc4s3)cc(Cl)cc2n1 [Example 200, N-(2-((2-(7-chloro-2-(methoxymethyl)quinoxalin-5-yl)-4-methylbenzo[d]thiazol-6-yl)oxy)ethyl)-4-fluorobenzenesulfonamide]	1.6 nM
COCc1cnc2c(-c3nc4ccc(OC)cc4s3)cc(Cl)cc2n1 [Example 201, 2-(7-chloro-2-(methoxymethyl)quinoxalin-5-yl)-6-methoxybenzo[d]thiazole]	1.3 nM
COCc1cnc2c(-c3nc4ccc(OC)cc4s3)cc(Cl)cc2n1 [Example 202, 2-(7-chloro-2-(methoxymethyl)quinoxalin-5-yl)-6-methoxybenzo[d]thiazole]	0.9 nM
COCc1cnc2c(-c3nc4c(C)cc(OC)cc4s3)cc(OC(F)(F)F)cc2n1 [Example 203, 6-methoxy-2-(2-(methoxymethyl)-7-(trifluoromethoxy)quinoxalin-5-yl)-4-methylbenzo[d] thiazole]	4.1 nM
COCc1cnc2c(-c3nc4c(C)cc(OC)cc4s3)cc(C(=O)OC)cc2n1 [Example 204, methyl 8-(6-methoxy-4-methylbenzo[d]thiazol-2-yl)-3-(methoxymethyl) quinoxaline-6-carboxylate]	3.1 nM
COCc1cnc2c(-c3nc4c(C)cc(OCCNS(=O)(=O)c5ccc(F)cc5)cc4s3)cc(C(=O)OC)cc2n1 [Example 205, methyl 8-(6-(2-(4-fluorophenylsulfonamido)ethoxy)-4-methylbenzo[d]thiazol-2-yl)-3-(methoxymethyl)quinoxaline-6-carboxylate]	51 nM
COCc1cnc2c(-c3nc4c(C)cc(OC)cc4s3)cc(F)cc2n1 [Example 206, 2-(7-fluoro-2-(methoxymethyl)quinoxalin-5-yl)-6-methoxy-4-methylbenzo[d]thiazole]	0.7 nM
COCc1cnc2c(-c3nc4c(C)cc(OCCNS(=O)(=O)c5ccc(F)cc5)cc4s3)cc(F)cc2n1 [Example 207, 4-fluoro-N-(2-((2-(7-fluoro-2-(methoxymethyl)quinoxalin-5-yl)-4-methylbenzo[d]thiazol-6-yl)oxy)ethyl)benzenesulfonamide]	0.9 nM
COCc1cnc2c(-c3nc4c(C)cc(OC)cc4s3)cc(C(F)(F)F)cc2n1 [Example 208, 6-methoxy-2-(2-(methoxymethyl)-7-(trifluoromethyl)quinoxalin-5-yl)-4-methylbenzo[d]thiazole]	1.1 nM
COCc1cnc2c(-c3nc4c(C)cc(OCCNS(=O)(=O)c5ccc(F)cc5)cc4s3)cc(C(F)(F)F)cc2n1 [Example 209, 4-fluoro-N-(2-((2-(2-(methoxymethyl)-7-(trifluoromethyl)quinoxalin-5-yl)-4-methylbenzo[d]thiazol-6-yl)oxy)ethyl)benzenesulfonamide]	1.1 nM
COCc1cnc2c(-c3nc4c(Cl)cc(OC)cc4s3)cc(Cl)cc2n1 [Example 210, 4-chloro-2-(7-chloro-2-(methoxymethyl)quinoxalin-5-yl)-6-methoxybenzo[d]thiazole]	0.3 nM
COc1cc(C)c2nc(-c3cc(C#N)cc4nc(OC)cnc34)sc2c1 [Example 211, 3-methoxy-8-(6-methoxy-4-methylbenzo[d]thiazol-2-yl)quinoxaline-6-carbonitrile]	21 nM
COCc1cnc2c(-c3nc4c(Cl)cc(OC)cc4s3)cccc2n1 [Example 212, 4-chloro-6-methoxy-2-(2-(methoxymethyl)quinoxalin-5-yl)benzo[d]thiazole]	2.4 nM
COCc1cnc2c(-c3nc4c(C)cc(OCCNS(=O)(=O)c5ccc(F)cc5)cc4s3)cccc2n1 [Example 213, 4-fluoro-N-(2-((2-(2-(methoxymethyl)quinoxalin-5-yl)-4-methylbenzo[d]thiazol-6-yl)oxy)ethyl) benzenesulfonamide]	5.8 nM
COc1cnc2c(-c3nc4c(F)c(F)c(OC)cc4s3)cc(Cl)cc2n1 [Example 214, 2-(7-chloro-2-methoxyquinoxalin-5-yl)-4,5-difluoro-6-methoxybenzo[d]thiazole]	4.3 nM
COc1cnc2c(-c3nc4c(Cl)c(F)c(OC)cc4s3)cc(Cl)cc2n1 [Example 215, 4-chloro-2-(7-chloro-2-methoxyquinoxalin-5-yl)-5-fluoro-6-methoxybenzo[d]thiazole]	2.9 nM
COc1cnc2c(-c3nc4c(Cl)c(F)c(OC)cc4s3)c(C)c(C)cc2n1 [Example 216, 4-chloro-5-fluoro-6-methoxy-2-(2-methoxy-6,7-dimethylquinoxalin-5-yl)benzo[d] thiazole]	160 nM
COc1cnc2c(-c3nc4c(F)c(F)c(OC)cc4s3)cc(C#N)cc2n1 [Example 217, 8-(4,5-difluoro-6-methoxybenzo[d]thiazol-2-yl)-3-methoxyquinoxaline-6-carbonitrile]	18 nM
